# Earlier results, collected in US9511027B1, “Calcium supplement having enhanced absorption” (Delavau L.L.C., priority 2006, dated 2016).
structure (smiles),measurement,setting,value
[Ca+2] [calcium],percent absorption,"9 to 18 year olds, Wastney et al. 1996",38%
same,elemental calcium absorbed,"adults, basis of the AIs of 1,000 mg and 1,200 mg, Heaney et al. 1988",about 30%
